# Measured values reported in patent publication US12383530B2, “Pharmaceutical combination for the treatment of melanoma” (Piramal Enterprises Limited, priority 2013, dated 2025).
# Values joined by “and” are separate entries in the source; they are usually repeats but may differ in a detail not shown here. Identical values can stand only once.
# Columns and labels:
# [1] = system: MDAMB-435S (BRAFV600E mutated) cell line; assay: CCK8 live cell dehydrogenase cytotoxicity assay, MDAMB-435S (96-well); type: cell-based, human; conditions: 48 h
# Protocol: (§1) The cells were then treated with the respective test compounds.
# (§2) At the end of the incubation periods, the plates were assayed using the CCK8 cytotoxicity assay protocol. The synergism was determined by the combination index (CI) calculated using the Compusyn software by Chou and Talalay (4). CI<1 is synergistic, CI=1 is additive and CI>1 is antagonistic.
# (§3) Statistical analysis was performed using the Student t test, and a p value of <0.05 was considered significant. Data are expressed as the mean±standard error of the mean (SEM). The mean value was obtained from at least two independent experiments, each performed in triplicate.
# (§4) Logarithmically growing cells were plated at a density of 3×10^3 cells/well and allowed to recover for 16-18 h. […] After 48 h, cell toxicity was determined by CCK-8 reagent (Dojindo Molecular Technologies, Inc, Maryland, and Japan). In accordance with the manufacturer's instructions, 5 μL/well CCK-8 reagent was added and plates were incubated for 2 h. The toxicity was determined by measuring the absorbance on Tecan Sapphire multi-fluorescence micro-plate reader at a wavelength of 450 nm corrected to 650 nm and normalized to controls. All the experiments were performed twice in triplicates.
# [2] = system: A375 (BRAFV600E mutated) cell line; assay: CCK8 live cell dehydrogenase assay, A375 (384-well, Example 2); type: cell-based, human; conditions: A375 parental, single agent, 48 h
# Protocol: Logarithmically growing human BRAFV600E mutated melanoma cells were seeded at a density of 1500 cells/well in 30 μL of Dulbecco's Modified Eagle medium medium (DMEM) in 384-well plate (Corning, USA) using Tecan automated platform (FreedomEvo Liquid handling system) and incubated for about 12-16 h to allow the cells to adhere. […] The controls used were only cells or cells along with the vehicle (DMSO).
# The plates were incubated for 48 h in humidified 5% CO2 incubator at 37°±1° C. Post incubation the plates were assayed using the CCK8 reagent (Dojindo Molecular Technologies, Inc, Maryland, and Japan). In accordance with the manufacturer's instructions, 3 μL CCK-8 reagent was added in each well of the 384 well plate and plates were incubated for 2 h. The toxicity was determined by measuring the absorbance on Tecan Sapphire multi-fluorescence micro-plate reader at a wavelength of 450 nm normalized to controls. All the experiments were performed in quadruplets.
# [3] = system: G361 (BRAFV600E mutated) cell line; assay: CCK8 live cell dehydrogenase cytotoxicity assay, G361 (96-well); type: cell-based, human; conditions: 48 h
# Protocol: as §1, §2, §3, §4
# [4] = system: A375R cell line (vemurafenib resistant); assay: CCK8 live cell dehydrogenase assay, A375R (384-well, Example 2); type: cell-based, human; conditions: single agent, 48 h
# Protocol: The cytotoxicity studies using all the test compounds as single agents and in combinations were carried out using the CCK8 live cell dehydrogenase assay.
# Logarithmically growing human BRAFV600E mutated melanoma cells were seeded at a density of 1500 cells/well in 30 μL of Dulbecco's Modified Eagle medium medium (DMEM) in 384-well plate (Corning, USA) using Tecan automated platform (FreedomEvo Liquid handling system) and incubated for about 12-16 h to allow the cells to adhere. The cells were then treated for 48 h with different doses of compound A and anticancer agents (vemurafenib or dabrafenib or trametinib) as monotherapy (used singly) and in combinations. Studies using different dosages were carried out for each combination (e.g. combination of compound A and vemurafenib). […]
# The plates were incubated for 48 h in humidified 5% CO2 incubator at 37°±1° C. […] The toxicity was determined by measuring the absorbance on Tecan Sapphire multi-fluorescence micro-plate reader at a wavelength of 450 nm normalized to controls. […]
# The potency of the combination was quantified using Calcusyn software (Biosoft, Ferguson, MO, USA) which is based on the Chou Talalay method that calculates a combination index (CI) with CI values less than 1 indicating synergy.
# SK-MEL3 melanoma cells = assay: Analysis of cell cycle distribution using flow cytometry, SK-MEL3; type: cell-based; conditions: 5 days
# Protocol: In case of SK-MEL3 melanoma cells, the cells were treated with: i) compound A (1 μM); ii) vemurafenib (10 μM); and iii) compound A (1 μM) and vemurafenib (10 μM) together for 5 days.
# (§5) The control cells were left untreated for 5 days. Both detached and adherent cells were harvested at the end of 5 days. The cells were washed twice with approximately 5 mL of phosphate buffered saline (PBS) with centrifugation at 1000 rpm for 10 min. The cells were resuspended in 500 μL of PBS and fixed in 500 μL ice-cold 70% ethanol. The fixed cells were incubated at room temperature for 30 min, spun at 1000 rpm for 10 min. To the cell pellet, 1 mL of chilled 70% ethanol was added and stored below 0° C. till further analysis. The cells were washed twice with PBS to remove fixative and re-suspended in 250 μL PBS. To this 12.5 μL of propidium iodide (1 mg/ml in PBS) and 12.5 μL Rnase A (1 mg/mL) was added. After incubation at 37° C. for 30 min, the cells were analyzed using flow cytometry.
# (§6) A flow cytometer (Becton Dickinson FACS Calibur, USA) was used for these studies in accordance with the manufacturer's recommendations. The argon ion laser set at 488 nm was used as an excitation source. Cells with DNA content between 2n and 4n were designated as being in G1, S and G2/M phases of the cell cycle, as defined by the level of red fluorescence. […] The number of cells in each cell cycle compartment was expressed as a percentage of the total number of cells present.
# G361 melanoma cells [5] = assay: Annexin V-FITC staining for detection of early apoptosis; type: cell-based, human; conditions: 1 μM of each compound, alone or together, 24 h
# Protocol: Annexin V-FITC is a sensitive probe for identifying apoptotic cells. During early apoptosis, the membrane phospholipid phosphatidyl serine (PS) is translocated from the inner to the outer leaflet of the plasma membrane, thereby exposing PS to the external cellular environment. Annexin V is a 35-36 kDa Calcium dependent phospholipid binding protein that has a high affinity for PS and binds to cells with exposed PS.
# The melanoma cells G361 was seeded in […] tissue culture flasks. After 24 h, cells were treated with: i) compound A (1 μM); ii) vemurafenib (1 μM); and iii) compound A (1 μM) and vemurafenib (1 μM) together; for 24 h. The control cells were left untreated for 24 h. Medium containing floating cells were collected and pooled with the adherent cells after harvesting with trypsin at the different time points. The cells were washed twice with cold PBS with centrifugation at 1000 rpm for 10 minutes. The cell pellet was resuspended in 1× binding buffer (10 mm HEPES pH 7.4, 140 mM NaCl, 2.5 mM CaCl2) at a concentration of 1×10^6 cells/mL. 100 μL of the solution (1×10^5 cells) were stained with Annexin V-FITC and propidium iodide. The cells were incubated for 15 min at room temperature (25-30° C.) in the dark and the sample was analysed by flow cytometry.
# [6] = system: A375 (BRAFV600E mutated) cell line; assay: CCK8 live cell dehydrogenase cytotoxicity assay, A375 (96-well); type: cell-based, human; conditions: 48 h
# Protocol: as §1, §2, §3, §4
# G361 melanoma cells [7] = assay: Analysis of cell cycle distribution using flow cytometry, G361; type: cell-based, human; conditions: 5 days; for apoptosis (sub G1 phase): 1 μM of each compound, alone or together
# Protocol: The G361/SK-MEL3 melanoma cells were seeded in […] tissue culture flasks. After 24 h, G361 cells were treated with: i) compound A (1 μM); ii) vemurafenib (1 μM); and iii) compound A (1 μM) and vemurafenib (1 μM) together for 5 days.
# as §5, §6
compound,measurement,setting,value
"CN1CC[C@@H](c2c(O)cc(O)c3c(=O)cc(-c4ccc(C(F)(F)F)cc4Cl)oc23)[C@@H]1CO.Cl (relative stereo) [compound A, (+)-trans-2-(2-chloro-4-trifluoromethylphenyl)-5,7-dihydroxy-8-(2-hydroxy-methyl-1-methylpyrrolidin-3-yl)-chromen-4-one Hydrochloride]",inhibition of cells,"[1]; MDA-MB435S, compound A 1 μM alone",32%
same,IC50,"[1]; MDAMB435S, cytotoxicity, Hydrochloride, read-out: IC50 in μM (±SEM)",0.85 µM and 0.7 µM
same,sensitivity of the cell line (dose response curve),[2],equally sensitive
same,inhibition of cells,"[3]; G361, compound A 0.3 μM alone",2%
same,sensitivity of the cell line (dose response curve),[4],equally sensitive
same,apoptosis (sub G1 phase),SK-MEL3 melanoma cells; compound A 1 μM alone,19.63%
same,cells in early apoptosis (annexin stained cells),G361 melanoma cells [5],8%
same,inhibition of cells,"[6]; A375, compound A 3 μM alone",46%
same,apoptosis (sub G1 phase),G361 melanoma cells [7],9.48%
"CCCS(=O)(=O)Nc1ccc(F)c(C(=O)c2c[nH]c3ncc(-c4ccc(Cl)cc4)cc23)c1F [vemurafenib, reference compound]",inhibition at 1 µM,"[1]; Homo sapiens, MDA-MB-435S, MDA-MB435S, vemurafenib 1 μM alone, read-out: inhibition of cells",31%
same,inhibition at 1 µM,"[3]; Homo sapiens, G-361, G361, vemurafenib 1 μM alone, read-out: inhibition of cells",30%
same,apoptosis (sub G1 phase),SK-MEL3 melanoma cells; vemurafenib 10 μM alone,15.12%
same,G1 arrest,"SK-MEL3 melanoma cells; vemurafenib 10 μM, control cells 67.38%",76.78%
same,cells in early apoptosis (annexin stained cells),G361 melanoma cells [5],20%
same,inhibition at 1 µM,"[6]; Homo sapiens, A-375, A375, vemurafenib 1 μM alone, read-out: inhibition of cells",23%
same,apoptosis (sub G1 phase),G361 melanoma cells [7],2.3%
same,G1 arrest,"G361 melanoma cells [7]; vemurafenib 1 μM, control cells 72.36%",91.94%
